Results as given in US20250368678A1, “19-NOR-C3,3-DISUBSTITUTED C21-AZACYCLO-S[…] AND METHOD FOR USING SAME” (SHANDONG LUYE PHARMACEUTICAL CO., LTD., priority 2022, published 2025).

Experiments:
[1] = molecular target: T1, α4β3δ GABA receptors (α4β3δ-HEK-FlpIn-TRex stable cell strain) (Homo sapiens, UniProt P28472+P48169); assay: Whole-cell patch clamp, extrasynaptic functional activity (positive allosteric regulation of GABA-induced current); assay type: cell-based; settings: patch clamp -60 mV, GABA at EC10-20, α4β3δ-HEK-FlpIn-TRex cells
T1 construct: expressed in transfected cells
Method: (§1) The α4β3δ-HEK-FlpIn-TRex stable cell strain was cultured in DMEM+10% FBS complete culture medium, with the selective antibiotics being 10 μg/mL Blasticidin, 100 µg/mL Zeocin, 100 µg/mL Hygromycin, and 0.2 μg/mL Puromycin. The α1β2γ2-CHO-TRex stable cell strain was cultured in DMEM/F12+10% FBS complete culture medium, with the selective antibiotics being 10 μg/mL Blasticidin, 100 μg/mL Zeocin, 300 μg/mL Hygromycin, and […] Puromycin.
(§2) The day before the patch clamp experiment, cells were seeded onto 12 mm polylysine-coated coverslips and then cultured in 35 mm culture dishes, and tetracycline ([…]) was added to induce the expression of GABA receptors. The extracellular fluid had the following composition (in mM): 140 NaCl, 3 KCl, 1.5 MgCl2, 2 CaCl2, 10 HEPES, and 10 Glucose. After thorough mixing, NaOH was added to adjust the pH to 7.4, and sucrose was added to adjust the osmotic pressure to 300-320 mOsm. The fluid was stored at 4° C. The electrode internal solution had the following composition (in mM): 145 KCl, 1 MgCl2, 5 EGTA, 10 HEPES, and 5 MgATP. After thorough mixing, KOH was added to adjust the pH to 7.3, and sucrose was added to adjust the osmotic pressure to 290-300 mOsm. The solution was filtered through a […] before use.
(§3) Whole-cell patch clamp recording was mainly employed in this experiment. The membrane potential was clamped at −60 mV, and receptors were activated using GABA at an EC10-20 concentration ([…]). The test compounds were dissolved in 0.1% DMSO, and perfusion was performed for 30 s prior to GABA stimulation. Finally, the positive allosteric regulating effects of the test compounds on α1β2γ2 or α4β3δ were determined.
(§4) The experimental result for each concentration was expressed as a fold increase in the GABA-induced current caused by the compound. […] At least 5 concentrations are tested to obtain a complete EC50 curve and EC50 values. All experiments were repeated on no less than 3 cells, and data processing was completed using GraphPad prism software. The dose-response curves were fitted using the Hill equation, and the half-maximal activating concentration EC50 and Emax were finally obtained.

[2] = molecular target: T2, α1β2γ2 GABA receptors (α1β2γ2-CHO-TRex stable cell strain) (Homo sapiens, UniProt P14867+P47870); assay: Whole-cell patch clamp, intrasynaptic functional activity (positive allosteric regulation of GABA-induced current); assay type: cell-based; settings: patch clamp -60 mV, GABA at EC10-20, α1β2γ2-CHO-TRex cells
T2 construct: expressed in transfected cells
Method: as §1, §2, §3, §4

[3] = In vitro liver microsomal stability assay, rat; assay type: in vitro ADME; settings: for Remaining amount % at 60 min: Rat liver microsomes 0.5 mg/mL, NADPH; for microsomal CLint at 1 µM: read-out: CLint(mic)
Method: (§5) 1) Preparation of working solutions of test samples: The test samples were diluted with acetonitrile to 100 M.
(§6) 2) Preparation of a working solution of liver microsomes: liver microsomes were diluted with 100 mM phosphate-buffered saline to 0.56 mg/mL.
(§7) 3) Preparation of a working solution of reduced nicotinamide adenine dinucleotide (NADPH): A proper amount of NADPH was weighed out and diluted with phosphate-buffered saline to 20 mM, and an equal volume of a 60 mM MgCl2 solution was added.
(§8) 4) Preparation of a stop solution: Tolbutamide was diluted with acetonitrile to 20 ng/mL, serving as a stop solution containing an internal standard.
(§9) 1) Incubation anti-adsorption EP tubes were prepared and labeled with species, test/control sample, time points (0, 5, 10, 20, 30, 60 min, Blank60, and NCF60), etc.
(§10) 2) 2 L of test or control sample working solution, diluted with acetonitrile to 100 M, and 178 L of liver microsome working solution were added to each tube. For the Blank60 tube, 2 L of acetonitrile was added instead of a test sample. The tubes were pre-incubated in a 37° C. water bath for about 10 min, with each sample tested in triplicate.
(§11) 3) After the pre-incubation was complete, 20 L of NADPH working solution was added to each tube except for the 0 min and NCF60 tubes to start reactions, and 20 L of phosphate-buffered saline (containing 30 mM MgCl2) was added to the NCF60 tube. In the incubation system, the final concentrations of the test and control samples were 1 M, the final concentration of liver microsomes was 0.5 mg/mL, the final concentration of NADPH was 1 mM, and the final concentration of MgCl2 was 3 mM.
(§12) 4) For the 0 min sample, 600 L of stop solution was added before adding the NADPH working solution. After each sample was incubated for its respective time, 600 L of stop solution was added to stop the reaction.
(§13) 5) After the reaction was stopped, each sample was vortexed for 30 s and then centrifuged at 13,500 rpm for 10 min. 100 L of the supernatant was transferred to an EP tube, and 100 L Milli-Q water was added. The mixture was well mixed by vortexing and analyzed by LC-MS/MS.
(§14) 6) Testosterone and dextromethorphan were used as positive control samples under the same conditions to assess the stability and reliability of the system.
(§15) Parameters of the test samples, including their half-lives, intrinsic clearance rates in liver microsomes, and hepatic intrinsic clearance rates, were calculated based on the percentage of test sample remaining.

[4] = In vitro liver microsomal stability assay, human; assay type: in vitro ADME; settings: for Remaining amount % at 60 min: Human liver microsomes 0.5 mg/mL, NADPH; for microsomal CLint at 1 µM: read-out: CLint(mic)
Method: as §5, §6, §7, §8, §9, §10, §11, §12, §13, §14, §15

T1 sequence (P48169 36-554): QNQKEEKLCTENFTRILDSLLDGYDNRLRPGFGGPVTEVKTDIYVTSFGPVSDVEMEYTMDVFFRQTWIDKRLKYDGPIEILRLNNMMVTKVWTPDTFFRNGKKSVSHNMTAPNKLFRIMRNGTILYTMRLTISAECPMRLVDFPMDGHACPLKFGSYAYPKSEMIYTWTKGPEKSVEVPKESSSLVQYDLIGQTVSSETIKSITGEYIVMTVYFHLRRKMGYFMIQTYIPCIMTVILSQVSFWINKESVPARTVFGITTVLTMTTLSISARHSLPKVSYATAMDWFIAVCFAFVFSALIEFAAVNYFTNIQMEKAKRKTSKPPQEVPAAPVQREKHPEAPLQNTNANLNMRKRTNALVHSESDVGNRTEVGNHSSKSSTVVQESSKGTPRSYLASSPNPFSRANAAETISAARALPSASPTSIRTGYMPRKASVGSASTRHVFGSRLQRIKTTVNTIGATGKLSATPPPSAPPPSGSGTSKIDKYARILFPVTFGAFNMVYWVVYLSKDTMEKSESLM
T1 sequence (P28472 26-473): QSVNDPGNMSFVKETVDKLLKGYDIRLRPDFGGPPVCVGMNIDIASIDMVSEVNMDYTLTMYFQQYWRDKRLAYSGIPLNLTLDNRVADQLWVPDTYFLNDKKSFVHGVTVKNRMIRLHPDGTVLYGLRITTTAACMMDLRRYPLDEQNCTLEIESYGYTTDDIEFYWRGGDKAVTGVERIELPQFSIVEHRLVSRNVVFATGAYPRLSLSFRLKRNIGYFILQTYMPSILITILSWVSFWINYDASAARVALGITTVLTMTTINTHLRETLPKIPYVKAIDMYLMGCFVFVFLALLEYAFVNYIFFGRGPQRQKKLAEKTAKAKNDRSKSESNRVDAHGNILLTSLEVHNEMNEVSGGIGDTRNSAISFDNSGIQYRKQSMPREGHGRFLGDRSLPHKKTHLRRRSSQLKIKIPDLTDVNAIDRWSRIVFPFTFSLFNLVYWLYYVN
T1 sequence (O14764 25-452 partner): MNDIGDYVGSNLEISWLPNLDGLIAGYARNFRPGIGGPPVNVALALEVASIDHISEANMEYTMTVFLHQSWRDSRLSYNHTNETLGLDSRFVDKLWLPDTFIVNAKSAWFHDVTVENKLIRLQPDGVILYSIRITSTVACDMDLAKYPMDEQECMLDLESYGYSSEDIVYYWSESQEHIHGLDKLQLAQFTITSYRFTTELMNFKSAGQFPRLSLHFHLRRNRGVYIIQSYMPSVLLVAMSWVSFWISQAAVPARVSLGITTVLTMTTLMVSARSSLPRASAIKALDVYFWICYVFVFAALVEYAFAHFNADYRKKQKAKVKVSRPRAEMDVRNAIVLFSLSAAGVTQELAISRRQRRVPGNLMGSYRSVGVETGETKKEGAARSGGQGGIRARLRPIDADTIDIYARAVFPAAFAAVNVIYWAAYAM
T2 sequence (P14867 28-456): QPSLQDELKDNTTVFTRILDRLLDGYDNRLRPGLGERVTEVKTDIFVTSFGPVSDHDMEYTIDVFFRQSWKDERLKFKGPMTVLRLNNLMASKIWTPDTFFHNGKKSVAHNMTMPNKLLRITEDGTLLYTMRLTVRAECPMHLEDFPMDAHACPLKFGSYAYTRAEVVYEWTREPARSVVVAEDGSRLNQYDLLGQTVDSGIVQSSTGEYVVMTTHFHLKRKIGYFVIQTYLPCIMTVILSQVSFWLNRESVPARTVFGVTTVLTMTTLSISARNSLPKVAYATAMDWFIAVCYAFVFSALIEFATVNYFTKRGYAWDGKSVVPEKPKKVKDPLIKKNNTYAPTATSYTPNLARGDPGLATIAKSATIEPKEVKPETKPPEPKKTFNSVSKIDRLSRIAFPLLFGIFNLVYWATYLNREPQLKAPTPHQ
T2 sequence (P47870 25-512 limits assumed): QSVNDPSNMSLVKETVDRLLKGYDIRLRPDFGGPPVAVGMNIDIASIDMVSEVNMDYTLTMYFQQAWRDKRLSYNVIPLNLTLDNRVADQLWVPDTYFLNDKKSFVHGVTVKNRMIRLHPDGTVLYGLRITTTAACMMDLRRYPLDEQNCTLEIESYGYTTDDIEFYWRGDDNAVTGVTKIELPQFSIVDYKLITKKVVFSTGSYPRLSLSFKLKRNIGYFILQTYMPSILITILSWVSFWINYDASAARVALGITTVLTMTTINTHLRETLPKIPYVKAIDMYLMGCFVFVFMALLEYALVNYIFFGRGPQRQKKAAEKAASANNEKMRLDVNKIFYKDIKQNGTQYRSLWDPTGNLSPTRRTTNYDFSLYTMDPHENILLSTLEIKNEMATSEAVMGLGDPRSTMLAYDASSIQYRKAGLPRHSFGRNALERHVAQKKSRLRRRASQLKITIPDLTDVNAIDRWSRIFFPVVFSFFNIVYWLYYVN
T2 sequence (P18507 40-475 partner): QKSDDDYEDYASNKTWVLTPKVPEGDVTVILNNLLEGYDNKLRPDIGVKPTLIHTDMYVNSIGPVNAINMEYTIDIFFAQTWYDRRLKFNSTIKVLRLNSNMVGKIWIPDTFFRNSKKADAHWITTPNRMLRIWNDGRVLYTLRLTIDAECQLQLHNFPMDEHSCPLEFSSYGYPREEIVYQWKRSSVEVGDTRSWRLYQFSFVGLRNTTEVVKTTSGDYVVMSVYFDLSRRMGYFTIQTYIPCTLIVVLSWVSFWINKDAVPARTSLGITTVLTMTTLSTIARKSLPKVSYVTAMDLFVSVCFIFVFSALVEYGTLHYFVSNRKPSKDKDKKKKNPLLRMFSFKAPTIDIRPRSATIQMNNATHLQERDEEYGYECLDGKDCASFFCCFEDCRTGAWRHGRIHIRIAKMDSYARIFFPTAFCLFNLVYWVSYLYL

Row | Structure (SMILES) | EC50 [1] | Emax [1] | EC50 [2] | Emax [2] | CLint scaled at 1 µM ([3]; Rat liver microsomes) | half-life at 1 µM ([3]; Rat liver microsomes) | Remaining amount % at 60 min [3] | microsomal CLint at 1 µM ([3]; Rat liver microsomes) | CLint scaled at 1 µM ([4]; Human liver microsomes) | half-life at 1 µM ([4]; Human liver microsomes) | Remaining amount % at 60 min [4] | microsomal CLint at 1 µM ([4]; Human liver microsomes) | T1/2 ([3]; Rat liver microsomes) | T1/2 ([4]; Human liver microsomes)
1 | C[C@@]1(O)CC[C@H]2[C@H](CC[C@@H]3[C@@H]2CC[C@]2(C)[C@@H](C(=O)Cn4cnn(-c5cccc(F)c5)c4=O)CC[C@@H]32)C1 [Compound 1] | 10 nM | 440% | 56 nM | 566% | 43.6 mL/min/kg | 57.3 min | 44.5% | 24.2 µL/min/mg | 3.97 mL/min/kg | 330 min | 89.0% | 4.2 µL/min/mg |  | 
2 | C[C@@]1(O)CC[C@H]2[C@H](CC[C@@H]3[C@@H]2CC[C@]2(C)[C@@H](C(=O)Cn4cnn(-c5cc(F)ccn5)c4=O)CC[C@@H]32)C1 [Compound 35] | 68 nM | 720% | 340 nM | 446% |  |  |  |  |  |  |  |  |  | 
3 | C[C@@]1(O)CC[C@H]2[C@H](CC[C@@H]3[C@@H]2CC[C@]2(C)[C@@H](C(=O)Cn4cnn(-c5ccnc(OC(F)(F)F)c5)c4=O)CC[C@@H]32)C1 [Compound 38] | 115 nM | 625% | 55 nM | 700% | 12 mL/min/kg | 210 min | 82.9% | 7 µL/min/mg | < 6.75 mL/min/kg | > 186 min | 97.3% | < 7.5 µL/min/mg |  | 
4 | C[C@@]1(O)CC[C@H]2[C@H](CC[C@@H]3[C@@H]2CC[C@]2(C)[C@@H](C(=O)Cn4cnn(-c5ccnc(C(F)F)c5)c4=O)CC[C@@H]32)C1 [Compound 37] |  | 432% |  | 600% |  |  |  |  |  |  |  |  |  | 
5 | C[C@@]1(O)CC[C@@]2(C)[C@@H](CC[C@@H]3[C@@H]2CC[C@]2(C)[C@@H](C(=O)Cn4cnn(-c5cccc(F)c5)c4=O)CC[C@@H]32)C1 [Compound 33] | 96 nM | 936% | 598 nM | 495% | 29 mL/min/kg | 85.6 min | 62.2% | 16 µL/min/mg | < 6.7 mL/min/kg | > 186 min | 85.8% | < 7.5 µL/min/mg |  | 
6 | C[C@@]1(O)CC[C@H]2[C@H](CC[C@@H]3[C@@H]2CC[C@]2(C)[C@@H](C(=O)Cn4c(=O)n(-c5ccccc5)c5ccccc54)CC[C@@H]32)C1 [Compound 13] |  | 470% |  | 305% |  |  |  |  |  |  |  |  |  | 
7 | Cc1cc(-n2ncn(CC(=O)[C@H]3CC[C@H]4[C@@H]5CC[C@@H]6C[C@](C)(O)CC[C@@H]6[C@H]5CC[C@]34C)c2=O)ccn1 [Compound 36] | 99 nM | 745% | 119 nM | 871% | 125 mL/min/kg | 29 min | 12.2% | 69 µL/min/mg | 53 mL/min/kg | 23 min | 15.9% | 59 µL/min/mg |  | 
8 | C[C@@]1(O)CC[C@H]2[C@H](CC[C@@H]3[C@@H]2CC[C@]2(C)[C@@H](C(=O)Cn4ncn(-c5ccc(F)cc5)c4=O)CC[C@@H]32)C1 [Compound 9] | 148 nM | 428% | 12.4 nM | 294% | 239 mL/min/kg |  | 4.19% | 133 µL/min/mg | 38 mL/min/kg |  | 24.73% | 42 µL/min/mg | 10.3 min | 32.8 min
9 | Cc1cc(-n2ncn(CC(=O)[C@H]3CC[C@H]4[C@@H]5CC[C@@H]6C[C@](C)(O)CC[C@@H]6[C@H]5CC[C@]34C)c2=O)cc(C)n1 [Compound 40] |  | 563% |  | 691% |  |  |  |  |  |  |  |  |  | 
10 | C[C@@]1(O)CC[C@H]2[C@H](CC[C@@H]3[C@@H]2CC[C@]2(C)[C@@H](C(=O)Cn4cnn(-c5cc(F)cc(C#N)c5)c4=O)CC[C@@H]32)C1 [Compound 44] |  | 546% |  | 518% | 27 mL/min/kg | 93.6 min | 64.82% | 15 µL/min/mg | 12 mL/min/kg | 102 min | 66.67% | 14 µL/min/mg |  | 
11 | C[C@@]1(O)CC[C@H]2[C@H](CC[C@@H]3[C@@H]2CC[C@]2(C)[C@@H](C(=O)Cn4cnn(-c5cncc(F)c5)c4=O)CC[C@@H]32)C1 [Compound 23] | 150 nM | 601% | 145 nM | 618% | 72 mL/min/kg | 34.7 min | 31.7% | 40 µL/min/mg | 21 mL/min/kg | 60.3 min | 53.4% | 23 µL/min/mg |  | 
12 | C[C@@]1(O)CC[C@H]2[C@H](CC[C@@H]3[C@@H]2CC[C@]2(C)[C@@H](C(=O)Cn4cnn(-c5cc(F)cc(F)c5)c4=O)CC[C@@H]32)C1 [Compound 28] | 35 nM | 441% | 154 nM |  | 43 mL/min/kg | 57.8 min | 48.8% | 24 µL/min/mg | 21 mL/min/kg | 58.2 min | 61.6% | 24 µL/min/mg |  | 
13 | Cn1ncn(CC(=O)[C@H]2CC[C@H]3[C@@H]4CC[C@@H]5C[C@](C)(O)CC[C@@H]5[C@H]4CC[C@]23C)c1=O [Compound 6] | 305 nM | 497% | 444 nM | 242% | 117 mL/min/kg | 21.3 min | 15.45% | 65 µL/min/mg | 10 mL/min/kg | 126 min | 72.92% | 11 µL/min/mg |  | 
14 | C[C@@]1(O)CC[C@H]2[C@H](CC[C@@H]3[C@@H]2CC[C@]2(C)[C@@H](C(=O)Cn4cnn(C5CCCCC5)c4=O)CC[C@@H]32)C1 [Compound 30] | 237 nM | 685% | 585 nM | 873% | 329 mL/min/kg | 7.6 min | 7.4% | 183 µL/min/mg | 91 mL/min/kg | 17.5 min | 9.5% | 79 µL/min/mg |  | 
15 | C[C@@]1(O)CC[C@@]2(C)[C@@H](CC[C@@H]3[C@@H]2CC[C@]2(C)[C@@H](C(=O)Cn4cnn(-c5ccnc(F)c5)c4=O)CC[C@@H]32)C1 [Compound 42] | 143 nM | 507% | 280 nM | 736% |  |  |  |  |  |  |  |  |  | 
